Measured values reported in patent US20260240798A1, “SOLID FORMS OF RXFP1 MODULATORS” (ASTRAZENECA AB, priority 2022, published 2026).
In brackets after ≈: the same amount, converted by molar mass.

Tests used:
human RXFP1 [1] = target: T1, human RXFP1 (Homo sapiens, UniProt Q9HBX9); experiment: Human RXFP1 Phospho-ERK Assay (Test H); type: cell-based; details: HEK293s cells stably transfected with human RXFP1; read-out: Test H phospo-ERK assay EC50
T1 construct: expressed in transfected cells; host or cells: HEK293s cells, vector pIRESneo3
T1 sequence (Q9HBX9 1-757): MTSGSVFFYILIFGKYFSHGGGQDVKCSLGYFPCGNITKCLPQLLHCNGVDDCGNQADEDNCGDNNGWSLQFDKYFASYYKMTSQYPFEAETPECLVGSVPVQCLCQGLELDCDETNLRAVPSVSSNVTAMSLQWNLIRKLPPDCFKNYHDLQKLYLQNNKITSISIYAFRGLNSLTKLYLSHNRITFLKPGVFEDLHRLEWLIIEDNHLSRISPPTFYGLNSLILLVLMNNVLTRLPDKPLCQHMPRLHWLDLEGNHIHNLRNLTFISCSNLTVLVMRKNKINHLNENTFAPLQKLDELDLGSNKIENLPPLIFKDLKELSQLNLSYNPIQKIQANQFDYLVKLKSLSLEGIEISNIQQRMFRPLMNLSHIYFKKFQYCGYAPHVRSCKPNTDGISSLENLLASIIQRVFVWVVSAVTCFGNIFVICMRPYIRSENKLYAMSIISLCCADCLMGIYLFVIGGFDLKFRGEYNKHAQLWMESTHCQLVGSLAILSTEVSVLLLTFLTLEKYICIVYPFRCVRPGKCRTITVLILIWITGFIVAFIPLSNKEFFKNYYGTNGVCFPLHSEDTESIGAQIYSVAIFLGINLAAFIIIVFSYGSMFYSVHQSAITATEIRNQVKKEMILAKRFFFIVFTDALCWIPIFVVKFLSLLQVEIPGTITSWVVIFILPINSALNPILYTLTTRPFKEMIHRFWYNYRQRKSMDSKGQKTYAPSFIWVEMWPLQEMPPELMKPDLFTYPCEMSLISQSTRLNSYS
Text: (§1) Cells: HEK293s cells stably transfected with human RXFP1 in pIRESneo3 was employed.

human RXFP1 [2] = target: T1, human RXFP1; experiment: Human RXFP1 cGMP Production Assay (Test G); type: cell-based; details: HEK293s cells stably transfected with human RXFP1
Protocol: Human RXFP1 cGMP Production Assay (Test G)
To profile compounds for RXFP1 agonist activity with respect to cGMP production, the Green GENIe cGMP Assay (Montana Molecular; catalogue number D800G) was employed. […] Fluorescence is reduced when cGMP is bound to the biosensor.
as §1
• 2. […] Cells and transduction mastermix were mixed in proportions 30 μL cells and 20 μL mastermix for a single well. • 6. […] Plate was incubated in the dark at 37° C., 5% CO2 for 24 h.
• 8. Medium was removed from plates using a Bluewasher (BluCatBio). • 9. 20 μL assay buffer was added with a Multidrop Combi (ThermoFisher). • 10. Plate was incubated in the dark at room temperature for 30 min prior to assaying. • 11. Plates were assayed using a FLIPR Tetra (Molecular Devices): 10 μL compound diluted with assay buffer was added to each well by the FLIPR Tetra and measuring green fluorescence over time for up to 3 h.
After subtraction of background fluorescence (before addition of compounds), area under curve values from 0 to 90 min after compound addition was used for calculation of responses.

[3] = cited from earlier work
[4] = Solubility of crystalline Form A of Compound (I) in pH 1.2 SGF, shake-flask (Test J); type: physicochemical; details: simulated gastric fluid pH 1.2 (SGF), thermodynamic from solid, 37° C., 24 h agitation
Protocol: Crystalline solubility in simulated gastric fluid pH 1.2 (SGF) was measured using a miniaturized shake-flask method (24 h agitation at 37° C.).
The samples were agitated at 37° C. for 24 hours in an Eppendorf shaker, agitation speed 1000 rpm. The samples were then centrifuged at 10000 RPM for 15 minutes, 37° C. Approximately 500 μL of the supernatant was withdrawn with automatic pipette to a new vial and centrifuged again for 15 min at 10000 rpm, 37° C. Then from the second centrifugation, samples were taken with automatic pipette to final dilution. pH was measured in the equilibrated remaining sample solution after the second centrifugation. XRPD was used to confirm that no form change had occurred.

[5] = Solubility of amorphous Compound (I) in pH 1.2 SGF, turbidimetric method (Test I); type: physicochemical; details: 37° C.
Protocol: 10 μL of the stock solution was rapidly injected into 990 μL of stabilizer solution containing 0.2% w/w PVPK30 and 0.2% w/w Pluronic F127 and 0.25 mM SDS aqueous solution under a few seconds of ultrasonic treatment to make a 1 mM amorphous nanosuspension. This formulation is further diluted to 0.25 mM with purified water.
The bulk concentration in equilibrium with amorphous particles is determined at 37° C. by a turbidimetric method (described in Lindfors et. al., Langmuir, 2006, 22(3), 911-916). Small volumes of drug suspension are successively added directly to a fluorescence cuvette containing 2000 μL simulated gastric fluid pH 1.2 (SGF) and are then mixed to give the desired concentrations. The light scattering intensity at 700 nm is recorded at a scattering angle of 90° as a function of total drug concentration. As a light scattering setup, a Perkin-Elmer LS 55 Luminescence Spectrometer is used, setting both the emission and excitation wavelengths to 700 nm. Slit excitation is set to 2.5 nm and slit emission is set to 5 nm. Particles are allowed to dissolve for at least 30 seconds prior to measurements starting. Data are then collected for 1 minute and a mean light scattering intensity is calculated. The solubility examination was performed within 45 min of the formation of the amorphous nanosuspension.
At low concentrations the particles dissolve, while at concentrations above the solubility, the particles remain suspended, leading to an almost linear increase in light scattering intensity as a function of total concentration.

Human Plasma Protein = Human Plasma Protein Binding (Test B); type: in vitro ADME; details: fraction unbound (fu)
Protocol: Human Plasma Protein Binding (Test B)
The assay was conducted according to the Human Plasma Protein Binding Assay described in pages 167-170 of Wernevik, J. et al., “A Fully Integrated Assay Panel for Early Drug Metabolism and Pharmacokinetics Profiling”, Assay and Drug Development Technologies, 2020, 18(4), 157-179. Data are reported in Table 1 as fraction unbound (fu) (% free). Where the assay was run multiple times for the same compound, the arithmetic mean is reported.

[6] = Solubility (pH 7.4) (Test F); type: physicochemical; details: pH 7.4, aqueous buffer
Protocol: Solubility (pH 7.4) (Test F)
The assay was conducted according to the Solubility Assay described in pages 164-167 of Wernevik, J. et al., “A Fully Integrated Assay Panel for Early Drug Metabolism and Pharmacokinetics Profiling”, Assay and Drug Development Technologies, 2020, 18(4), 157-179. Where the assay was run multiple times for the same compound, the arithmetic mean is reported.

## relaxin2
Human RXFP1 [1]
  EC50: 0.038 nM
Human RXFP1 [2]
  EC50: 0.085 nM

## serelaxin
[3]; approximately one third of the patients, intravenous
  blood pressure drop: > 40 mm Hg
[3]; hospitalized patients, continuous intravenous administration
  markers of cardiac, renal and hepatic damage and congestion: improved
[3]; patients
  clearance from the patients' circulation: rapid clearance

## COc1cc(F)c(O[C@H]2CC[C@@](C)(C(=O)O)CC2)cc1C(=O)N[C@@H]1[C@H]2CC[C@H](C2)[C@@H]1C(=O)NCC1(C)CCC1 [Form A of Compound (I), (1S,4s)-4-(2-Fluoro-4-methoxy-5-(((1S,2R,3S,4R)-3-(((1-methylcyclobutyl)methyl)carbamoyl)bicyclo[2.2.1]heptan-2-yl)carbamoyl)phenoxy)-1-methylcyclohexane-1-carboxylic acid]
[4]
  solubility at 24 h: 0.4 µM (≈ 0.218 µg/mL)

## COc1cc(F)c(O[C@H]2CC[C@@](C)(C(=O)O)CC2)cc1C(=O)N[C@@H]1[C@H]2CC[C@H](C2)[C@@H]1C(=O)NCC1(C)CCC1 [Compound (I), (1S,4s)-4-(2-fluoro-4-methoxy-5-(((1S,2R,3S,4R)-3-(((1-methylcyclobutyl)methyl)carbamoyl)bicyclo[2.2.1]heptan-2-yl)carbamoyl)phenoxy)-1-methylcyclohexane-1-carboxylic acid]
[5]; simulated gastric fluid pH 1.2 (SGF), simulated gastric fluid, kinetic from dmso stock, amorphous nanosuspension, extrapolation of light scattering to zero intensity
  solubility: 8 µM (≈ 4.36 µg/mL)
[5]; total concentration 1.2 uM
  Mean light scattering intensity: 0.16 a.u.
[5]; total concentration 2.5 uM
  Mean light scattering intensity: 0.28 a.u.
[5]; total concentration 3.7 uM
  Mean light scattering intensity: 0.33 a.u.
[5]; total concentration 6.1 uM
  Mean light scattering intensity: 0.33 a.u.
[5]; total concentration 8.5 uM
  Mean light scattering intensity: 1.71 a.u.
[5]; total concentration 10.8 uM
  Mean light scattering intensity: 4.94 a.u.
[5]; total concentration 13.0 uM
  Mean light scattering intensity: 8.19 a.u.
[5]; total concentration 15.3 uM
  Mean light scattering intensity: 11.77 a.u.
[5]; total concentration 17.4 uM
  Mean light scattering intensity: 15.33 a.u.
[5]; total concentration 19.6 uM
  Mean light scattering intensity: 18.47 a.u.
Human Plasma Protein
  Test B Human Plasma Protein Binding (% free): 4.3 % free
[6]
  solubility: > 500 µM
